Assay results from patent publication US9593122B2, “Substituted pyrazolylpyrazole derivative and use of same as herbicide” (KYOYU AGRI CO., LTD., priority 2013, dated 2017).

Experiments:
Format in all cases: in vivo
Chenopodium album [1] = experiment: Weed foliar treatment test; conditions: foliar spray, 3 weeks
Experimental: (§1) Soil was filled into a 1/6000 are pot followed by seeding with Digitaria ciliaris, Chenopodium album and Amaranthus retroflexus, covering with soil, and cultivating in a glass greenhouse at an average atmospheric temperature of 25° C.
(§2) Wettable powder of Target Compound (I) shown in Table 1 prepared in compliance with the preparation examples were diluted with water to the prescribed amount of chemical and uniformly sprayed onto the weeds using 15 liters of sprayed water per are when Digitaria ciliaris had grown to the 1.0 to 2.0 leaf stage.
(§3) After treating for 3 weeks in a glass greenhouse at an average atmospheric temperature of 25° C., the herbicidal efficacy thereof was investigated.
(§4) Evaluation of herbicidal efficacy was carried out in the same manner as the above-mentioned Test Example 1.

Digitaria ciliaris [2] = experiment: Weed foliar treatment test; conditions: foliar spray at 1.0 to 2.0 leaf stage of Digitaria ciliaris, 3 weeks
Experimental: as §1, §2, §3, §4

Amaranthus retroflexus [3] = experiment: Weed foliar treatment test; conditions: foliar spray, 3 weeks
Experimental: as §1, §2, §3, §4

Chenopodium album [4] = experiment: Farming soil treatment test; conditions: soil surface spray prior to weed growth, 30 days
Experimental: (§5) Field soil was filled into a 1/6000 are pot followed by seeding with Digitaria ciliaris, Chenopodium album and Amaranthus retroflexus and covering with soil.
(§6) Wettable powder of compounds of formula (I) shown in Table 1 prepared in compliance with the preparation examples were diluted with water to the prescribed amount of chemical and uniformly sprayed onto each soil surface layer using 10 liters of sprayed water per are prior to weed growth following seeding.
(§7) After treating for 30 days in a glass greenhouse at an average atmospheric temperature of 30° C., the herbicidal efficacy thereof was investigated.
(§8) Evaluation of herbicidal efficacy is carried out in the same manner as the above-mentioned Test Example 1.

Digitaria ciliaris [5] = experiment: Farming soil treatment test; conditions: soil surface spray prior to weed growth, 30 days
Experimental: as §5, §6, §7, §8

Amaranthus retroflexus [6] = experiment: Farming soil treatment test; conditions: soil surface spray prior to weed growth, 30 days
Experimental: as §5, §6, §7, §8

Scirpus juncoides = experiment: Paddy herbicidal activity test; conditions: irrigated paddy pot, 30 days
Experimental: (§9) Rice paddy soil was filled into a 1/10000 are pot followed by the addition of suitable amounts of water and chemical fertilizer, kneading, seeding with Echinochloa crus-galli, Monochoria vaginalis and Scirpus juncoides and maintaining in an irrigated state at a water depth of 3 cm.
(§10) Wettable powder of Target Compound (I) shown in Table 1 prepared in compliance with the preparation examples were diluted with a suitable amount of water, rice plants in the 2.0 leaf stage were transplanted during 3.5 leaf stage of Echinochloa crus-galli, and treated by dropping in chemical in the prescribed amount per are using a pipette.
as §7
(§11) Evaluation of herbicidal efficacy was carried out by comparing growth inhibition rate (%) with an untreated group, while evaluation of phytotoxicity was carried out by comparing growth inhibition rate (%) with the state of a complete eradication group, and were evaluated at 11 levels indicated below.

Monochoria vaginalis = experiment: Paddy herbicidal activity test; conditions: irrigated paddy pot, 30 days
Experimental: as §9, §10, §7, §11

Echinochloa crus-galli = experiment: Paddy herbicidal activity test; conditions: irrigated paddy pot, treated at 3.5 leaf stage of Echinochloa crus-galli, 30 days
Experimental: as §9, §10, §7, §11

SMILES | Chenopodium album herbicidal efficacy (growth inhibition level) (Chenopodium album [1]; 5g a.i./10a) | Chenopodium album herbicidal efficacy (growth inhibition level) (Chenopodium album [1]; 10g a.i./10a) | Digitaria ciliaris herbicidal efficacy (growth inhibition level) (Digitaria ciliaris [2]; 5g a.i./10a) | Digitaria ciliaris herbicidal efficacy (growth inhibition level) (Digitaria ciliaris [2]; 10g a.i./10a) | Amaranthus retroflexus herbicidal efficacy (growth inhibition level) (Amaranthus retroflexus [3]; 5g a.i./10a) | Amaranthus retroflexus herbicidal efficacy (growth inhibition level) (Amaranthus retroflexus [3]; 10g a.i./10a) | Chenopodium album herbicidal efficacy (growth inhibition level) (Chenopodium album [4]; 5g a.i./10a) | Chenopodium album herbicidal efficacy (growth inhibition level) (Chenopodium album [4]; 10g a.i./10a) | Digitaria ciliaris herbicidal efficacy (growth inhibition level) (Digitaria ciliaris [5]; 5g a.i./10a) | Digitaria ciliaris herbicidal efficacy (growth inhibition level) (Digitaria ciliaris [5]; 10g a.i./10a) | Amaranthus retroflexus herbicidal efficacy (growth inhibition level) (Amaranthus retroflexus [6]; 5g a.i./10a) | Amaranthus retroflexus herbicidal efficacy (growth inhibition level) (Amaranthus retroflexus [6]; 10g a.i./10a) | Scirpus juncoides herbicidal efficacy (growth inhibition level) (Scirpus juncoides; 1g a.i./10a) | Scirpus juncoides herbicidal efficacy (growth inhibition level) (Scirpus juncoides; 5g a.i./10a) | Monochoria vaginalis herbicidal efficacy (growth inhibition level) (Monochoria vaginalis; 1g a.i./10a) | Monochoria vaginalis herbicidal efficacy (growth inhibition level) (Monochoria vaginalis; 5g a.i./10a) | Echinochloa crus-galli herbicidal efficacy (growth inhibition level) (Echinochloa crus-galli; 1g a.i./10a) | Echinochloa crus-galli herbicidal efficacy (growth inhibition level) (Echinochloa crus-galli; 5g a.i./10a)
N#Cc1cnn(-c2nn3c(c2Cl)CCCC3)c1N(C/C=C\Cl)C(=O)C(F)(F)F [Compound 21] | 10 (10: 100%) | 10 (10: 100%) | 10 (10: 100%) | 10 (10: 100%) | 10 (10: 100%) | 10 (10: 100%) | 10 (10: 100%) | 10 (10: 100%) | 10 (10: 100%) | 10 (10: 100%) | 10 (10: 100%) | 10 (10: 100%) | 8 (8: 80% to less than 90%) | 10 (10: 100%) | 9 (9: 90% to less than 100%) | 9 (9: 90% to less than 100%) | 9 (9: 90% to less than 100%) | 9 (9: 90% to less than 100%)
C=C(Cl)CNc1c([N+](=O)[O-])cnn1-c1nn2c(c1Cl)CCCC2 [Compound 30] | 10 (10: 100%) | 10 (10: 100%) | 10 (10: 100%) | 10 (10: 100%) | 10 (10: 100%) | 10 (10: 100%) | 10 (10: 100%) | 10 (10: 100%) | 10 (10: 100%) | 10 (10: 100%) | 10 (10: 100%) | 10 (10: 100%) | 8 (8: 80% to less than 90%) | 10 (10: 100%) | 9 (9: 90% to less than 100%) | 10 (10: 100%) | 9 (9: 90% to less than 100%) | 10 (10: 100%)
O=[N+]([O-])c1cnn(-c2nn3c(c2Cl)CCCC3)c1NC/C=C\Cl [Compound 32] | 10 (10: 100%) | 10 (10: 100%) | 10 (10: 100%) | 10 (10: 100%) | 10 (10: 100%) | 10 (10: 100%) | 10 (10: 100%) |  | 10 (10: 100%) | 10 (10: 100%) | 10 (10: 100%) | 10 (10: 100%) | 8 (8: 80% to less than 90%) | 10 (10: 100%) | 9 (9: 90% to less than 100%) | 10 (10: 100%) | 8 (8: 80% to less than 90%) | 9 (9: 90% to less than 100%)
